Columns and labels:
Shigella sonnei [1] = assay: Antibacterial activity against Shigella sonnei assessed as percent resistant isolates by broth microdilution method; assay type: functional; conditions: pooled result: one value given for 4 cell lines, strains, targets or settings
Aeromonas veronii [2] = assay: Antibacterial activity against Aeromonas veronii assessed as percent susceptible isolates by broth microdilution method; assay type: functional
Aeromonas hydrophila [3] = assay: Antibacterial activity against Aeromonas hydrophila by broth microdilution method; assay type: functional
Aeromonas sobria [4] = assay: Antibacterial activity against Aeromonas sobria assessed as percent susceptible isolates by broth microdilution method; assay type: functional
Vibrio parahaemolyticus [5] = assay: Antibacterial activity against Vibrio parahaemolyticus assessed as percent resistant isolates by broth microdilution method; assay type: functional
Campylobacter coli = assay: Antibacterial activity against Campylobacter coli by broth microdilution method; assay type: functional
Escherichia coli [6] = assay: Antibacterial activity against Escherichia coli assessed as percent resistant isolates by broth microdilution method; assay type: functional
Vibrio alginolyticus [7] = assay: Antibacterial activity against Vibrio alginolyticus assessed as percent susceptible isolates by broth microdilution method; assay type: functional
Plesiomonas shigelloides [8] = assay: Antibacterial activity against Plesiomonas shigelloides assessed as percent susceptible isolates by broth microdilution method; assay type: functional
Aeromonas sobria [9] = assay: Antibacterial activity against Aeromonas sobria by broth microdilution method; assay type: functional
Yersinia enterocolitica [10] = assay: Antibacterial activity against Yersinia enterocolitica assessed as percent susceptible isolates by broth microdilution method; assay type: functional
Shigella sonnei [11] = assay: Antibacterial activity against Shigella sonnei by broth microdilution method; assay type: functional
Vibrio cholerae [12] = assay: Antibacterial activity against Vibrio cholerae assessed as percent resistant isolates by broth microdilution method; assay type: functional
Vibrio parahaemolyticus [13] = assay: Antibacterial activity against Vibrio parahaemolyticus assessed as percent susceptible isolates by broth microdilution method; assay type: functional
Escherichia coli [14] = assay: Antibacterial activity against Escherichia coli by broth microdilution method; assay type: functional
Vibrio sp. [15] = assay: Antibacterial activity against Vibrio sp. assessed as percent susceptible isolates by broth microdilution method; assay type: functional
Shigella flexneri = assay: Antibacterial activity against Shigella flexneri by broth microdilution method; assay type: functional
Salmonella typhimurium [16] = assay: Antibacterial activity against Salmonella enterica serovar Typhimurium assessed as percent resistant isolates by broth microdilution method; assay type: functional, Salmonella enterica subsp. enterica serovar Typhimurium; conditions: pooled result: one value given for 8 cell lines, strains, targets or settings
Aeromonas caviae [17] = assay: Antibacterial activity against Aeromonas caviae by broth microdilution method; assay type: functional
Aeromonas hydrophila [18] = assay: Antibacterial activity against Aeromonas hydrophila assessed as percent susceptible isolates by broth microdilution method; assay type: functional
Shigella boydii [19] = assay: Antibacterial activity against Shigella boydii assessed as percent susceptible isolates by broth microdilution method; assay type: functional; conditions: pooled result: one value given for 3 cell lines, strains, targets or settings
Salmonella typhimurium [20] = assay: Antibacterial activity against Salmonella enterica serovar Typhimurium by broth microdilution method; assay type: functional, Salmonella enterica subsp. enterica serovar Typhimurium
Vibrio fluvialis [21] = assay: Antibacterial activity against Vibrio fluvialis assessed as percent resistant isolates by broth microdilution method; assay type: functional
Vibrio parahaemolyticus [22] = assay: Antibacterial activity against Vibrio parahaemolyticus by broth microdilution method; assay type: functional
Salmonella enteritidis [23] = assay: Antibacterial activity against Salmonella enterica serovar Enteritidis by broth microdilution method; assay type: functional, Salmonella enterica subsp. enterica serovar Enteritidis
Vibrio sp. [24] = assay: Antibacterial activity against Vibrio sp. by broth microdilution method; assay type: functional
Escherichia coli [25] = assay: Antibacterial activity against Escherichia coli assessed as percent susceptible isolates by broth microdilution method; assay type: functional
Vibrio vulnificus [26] = assay: Antibacterial activity against Vibrio vulnificus assessed as percent susceptible isolates by broth microdilution method; assay type: functional
Campylobacter jejuni [27] = assay: Antibacterial activity against Campylobacter jejuni assessed as percent resistant isolates by broth microdilution method; assay type: functional; conditions: pooled result: one value given for 2 cell lines, strains, targets or settings
Aeromonas sobria [28] = assay: Antibacterial activity against Aeromonas sobria assessed as percent resistant isolates by broth microdilution method; assay type: functional
Vibrio alginolyticus [29] = assay: Antibacterial activity against Vibrio alginolyticus by broth microdilution method; assay type: functional
Vibrio fluvialis [30] = assay: Antibacterial activity against Vibrio fluvialis by broth microdilution method; assay type: functional
Shigella dysenteriae = assay: Antibacterial activity against Shigella dysenteriae by broth microdilution method; assay type: functional
Plesiomonas shigelloides [31] = assay: Antibacterial activity against Plesiomonas shigelloides assessed as percent resistant isolates by broth microdilution method; assay type: functional
Vibrio cholerae [32] = assay: Antibacterial activity against Vibrio cholerae assessed as percent susceptible isolates by broth microdilution method; assay type: functional
Aeromonas caviae [33] = assay: Antibacterial activity against Aeromonas caviae assessed as percent resistant isolates by broth microdilution method; assay type: functional
Yersinia enterocolitica [34] = assay: Antibacterial activity against Yersinia enterocolitica by broth microdilution method; assay type: functional
Vibrio cholerae [35] = assay: Antibacterial activity against Vibrio cholerae by broth microdilution method; assay type: functional
Vibrio sp. [36] = assay: Antibacterial activity against Vibrio sp. assessed as percent resistant isolates by broth microdilution method; assay type: functional
Campylobacter jejuni [37] = assay: Antibacterial activity against Campylobacter jejuni by broth microdilution method; assay type: functional
Vibrio alginolyticus [38] = assay: Antibacterial activity against Vibrio alginolyticus assessed as percent resistant isolates by broth microdilution method; assay type: functional
Salmonella enteritidis [39] = assay: Antibacterial activity against Salmonella enterica serovar Enteritidis assessed as percent susceptible isolates by broth microdilution method; assay type: functional, Salmonella enterica subsp. enterica serovar Enteritidis; conditions: pooled result: one value given for 5 cell lines, strains, targets or settings
Plesiomonas shigelloides [40] = assay: Antibacterial activity against Plesiomonas shigelloides by broth microdilution method; assay type: functional
[41] = system: Yersinia pseudotuberculosis; assay: Antibacterial activity against Yersinia pseudotuberculosis by broth microdilution method; assay type: functional
Aeromonas hydrophila [42] = assay: Antibacterial activity against Aeromonas hydrophila assessed as percent resistant isolates by broth microdilution method; assay type: functional
Vibrio fluvialis [43] = assay: Antibacterial activity against Vibrio fluvialis assessed as percent susceptible isolates by broth microdilution method; assay type: functional
Aeromonas veronii [44] = assay: Antibacterial activity against Aeromonas veronii assessed as percent resistant isolates by broth microdilution method; assay type: functional
Campylobacter jejuni [45] = assay: Antibacterial activity against Campylobacter jejuni assessed as percent susceptible isolates by broth microdilution method; assay type: functional; conditions: pooled result: one value given for 2 cell lines, strains, targets or settings
Shigella boydii [46] = assay: Antibacterial activity against Shigella boydii by broth microdilution method; assay type: functional
Vibrio vulnificus [47] = assay: Antibacterial activity against Vibrio vulnificus by broth microdilution method; assay type: functional
Vibrio vulnificus [48] = assay: Antibacterial activity against Vibrio vulnificus assessed as percent resistant isolates by broth microdilution method; assay type: functional
Yersinia enterocolitica [49] = assay: Antibacterial activity against Yersinia enterocolitica assessed as percent resistant isolates by broth microdilution method; assay type: functional
Aeromonas caviae [50] = assay: Antibacterial activity against Aeromonas caviae assessed as percent susceptible isolates by broth microdilution method; assay type: functional
Aeromonas veronii [51] = assay: Antibacterial activity against Aeromonas veronii by broth microdilution method; assay type: functional

With `C[C@H]1c2cccc(O)c2C(=O)C2=C(O)[C@]3(O)C(=O)C(C(N)=O)=C(O)[C@@H](N(C)C)[C@@H]3[C@@H](O)[C@@H]21.O` [DOXYCYCLINE] the Activity (Shigella sonnei [1]) was 52.5%, the Activity (Aeromonas veronii [2]) was 100% and the MIC50 (Aeromonas hydrophila [3]) was 0.5 µg/mL. The MIC90 (Aeromonas hydrophila [3]) was 1 µg/mL, the Activity (Aeromonas sobria [4]) was 100% and the Activity (Vibrio parahaemolyticus [5]) was 0%. For the same compound, the MIC (Campylobacter coli) was at most 0.12 µg/mL, the MIC50 (Campylobacter coli) was at most 0.12 µg/mL and the MIC90 (Campylobacter coli) was 16 µg/mL. It also gave an Activity (Escherichia coli [6]) of 16%, an Activity (Vibrio alginolyticus [7]) of 100% and an Activity (Plesiomonas shigelloides [8]) of 100%. For the same compound, the MIC50 (Aeromonas sobria [9]) was 0.5 µg/mL, the MIC90 (Aeromonas sobria [9]) was 1 µg/mL and the Activity (Yersinia enterocolitica [10]) was 95.7%. The MIC50 (Shigella sonnei [11]) was 16 µg/mL, the MIC90 (Shigella sonnei [11]) was 32 µg/mL and the Activity (Vibrio cholerae [12]) was 0%. It also gave an Activity (Vibrio parahaemolyticus [13]) of 100%, an MIC50 (Escherichia coli [14]) of 2 µg/mL and an MIC90 (Escherichia coli [14]) of 16 µg/mL. It also gave an Activity (Vibrio sp. [15]) of 100%, an MIC50 (Shigella flexneri) of 16 µg/mL and an MIC90 (Shigella flexneri) of 32 µg/mL. For the same compound, the Activity (Salmonella typhimurium [16]) was 13.9%, the MIC50 (Aeromonas caviae [17]) was 0.5 µg/mL and the MIC90 (Aeromonas caviae [17]) was 1 µg/mL. For the same compound, the Activity (Aeromonas hydrophila [18]) was 100%, the Activity (Shigella boydii [19]) was 34.7% and the MIC50 (Salmonella typhimurium [20]) was 2 µg/mL. It also gave an MIC90 (Salmonella typhimurium [20]) of 32 µg/mL, an Activity (Vibrio fluvialis [21]) of 0% and an MIC (Vibrio parahaemolyticus [22]) of at most 0.12 µg/mL. It also gave an MIC50 (Vibrio parahaemolyticus [22]) of at most 0.12 µg/mL, an MIC90 (Vibrio parahaemolyticus [22]) of at most 0.12 µg/mL and an MIC50 (Salmonella enteritidis [23]) of 2 µg/mL. It also gave an MIC90 (Salmonella enteritidis [23]) of 32 µg/mL, an MIC (Vibrio sp. [24]) of at most 0.12 µg/mL and an MIC50 (Vibrio sp. [24]) of at most 0.12 µg/mL. It also gave an MIC90 (Vibrio sp. [24]) of at most 0.12 µg/mL, an Activity (Escherichia coli [25]) of 76% and an Activity (Vibrio vulnificus [26]) of 100%. It also gave an Activity (Campylobacter jejuni [27]) of 33.9%, an Activity (Aeromonas sobria [28]) of 0% and an MIC (Vibrio alginolyticus [29]) of at most 0.12 µg/mL. For the same compound, the MIC50 (Vibrio alginolyticus [29]) was at most 0.12 µg/mL, the MIC90 (Vibrio alginolyticus [29]) was at most 0.12 µg/mL and the MIC (Vibrio fluvialis [30]) was at most 0.12 µg/mL. For the same compound, the MIC50 (Vibrio fluvialis [30]) was at most 0.12 µg/mL, the MIC90 (Vibrio fluvialis [30]) was at most 0.12 µg/mL and the MIC50 (Shigella dysenteriae) was 16 µg/mL. For the same compound, the MIC90 (Shigella dysenteriae) was 32 µg/mL, the Activity (Plesiomonas shigelloides [31]) was 0% and the Activity (Vibrio cholerae [32]) was 100%. The Activity (Aeromonas caviae [33]) was 0%, the MIC50 (Yersinia enterocolitica [34]) was 1 µg/mL and the MIC90 (Yersinia enterocolitica [34]) was 2 µg/mL. For the same compound, the MIC (Vibrio cholerae [35]) was at most 0.12 µg/mL, the MIC50 (Vibrio cholerae [35]) was at most 0.12 µg/mL and the MIC90 (Vibrio cholerae [35]) was at most 0.12 µg/mL. It also gave an Activity (Vibrio sp. [36]) of 0%, an MIC (Campylobacter jejuni [37]) of at most 0.12 µg/mL and an MIC50 (Campylobacter jejuni [37]) of at most 0.12 µg/mL. The MIC90 (Campylobacter jejuni [37]) was 16 µg/mL, the Activity (Vibrio alginolyticus [38]) was 0% and the Activity (Salmonella enteritidis [39]) was 82.2%. For the same compound, the MIC (Plesiomonas shigelloides [40]) was at most 0.12 µg/mL, the MIC50 (Plesiomonas shigelloides [40]) was at most 0.12 µg/mL and the MIC50 [41] was 1 µg/mL. For the same compound, the MIC90 [41] was 2 µg/mL, the Activity (Aeromonas hydrophila [42]) was 0% and the Activity (Vibrio fluvialis [43]) was 100%. The Activity (Aeromonas veronii [44]) was 0%, the Activity (Campylobacter jejuni [45]) was 59.6% and the MIC50 (Shigella boydii [46]) was 16 µg/mL. The MIC90 (Shigella boydii [46]) was 32 µg/mL, the MIC (Vibrio vulnificus [47]) was at most 0.12 µg/mL and the MIC50 (Vibrio vulnificus [47]) was at most 0.12 µg/mL. It also gave an MIC90 (Vibrio vulnificus [47]) of at most 0.12 µg/mL, an Activity (Vibrio vulnificus [48]) of 0% and an Activity (Yersinia enterocolitica [49]) of 4.3%. The Activity (Aeromonas caviae [50]) was 100%, the MIC50 (Aeromonas veronii [51]) was 0.5 µg/mL and the MIC90 (Aeromonas veronii [51]) was 1 µg/mL.
